Drawing on US11891387B2, “Monoacylglycerol lipase modulators” (Janssen Pharmaceutica NV, priority 2020, dated 2024), this text covers IC50 for twelve molecules.

The structures appear in SMILES notation.

In the assay the target is human MGL from HeLa cells (Homo sapiens (Human), UniProt Q99685). As to the kind of experiment: MGL in vitro activity assay: cleavage of [glycerol-1,3-3H]-oleyl glycerol, activated carbon filtration. It counts as biochemical. The following applies: 300 nM [Glycerol-1,3-3H]-oleyl glycerol, endogenously expressed MGL from HeLa cells, one hour incubation. Summed up: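 Endogenous human MGL from HeLa cells or homogenates was incubated with compound and 300 nM [glycerol-1,3-3H]-oleyl glycerol for one hour. Released [3H]-glycerol passing an activated carbon filter was counted as the measure of activity. Screening used 10 μM compound, with IC50 top concentration set empirically.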
human MGL from HeLa cells, sequence (Q99685 whole entry): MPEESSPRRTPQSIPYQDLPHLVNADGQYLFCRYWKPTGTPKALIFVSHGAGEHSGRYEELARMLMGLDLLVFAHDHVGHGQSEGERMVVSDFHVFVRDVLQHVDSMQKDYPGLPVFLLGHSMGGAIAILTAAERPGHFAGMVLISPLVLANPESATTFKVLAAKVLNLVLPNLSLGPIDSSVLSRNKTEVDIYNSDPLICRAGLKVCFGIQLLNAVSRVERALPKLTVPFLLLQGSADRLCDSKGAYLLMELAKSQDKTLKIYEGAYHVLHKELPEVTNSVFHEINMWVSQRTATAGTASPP
The molecule `Cc1ccc(C(=O)N2CCc3c(nn(C)c3-c3cc(C(F)(F)F)nn3C)[C@@H]2C)cc1C` [Example 43, (S)-(2,7-Dimethyl-3-(1-methyl-3-(trifluoromethyl)-1H-pyrazol-5-yl)-2,4,5,7-tetrahydro-6H-pyrazolo[3,4-c]pyridin-6-yl)(3,4-dimethylphenyl)methanone] registered an IC50 of 0.033 µM.

Molecule `Cn1nc(C(F)(F)F)cc1-c1c2c(nn1C)[C@@H]1CCC[C@H](C2)N1C(=O)c1noc2ccccc12` [Example 84, Benzo[d]isoxazol-3-yl((5R,9S)-2-methyl-3-(1-methyl-3-(trifluoromethyl)-1H-pyrazol-5-yl)-4,5,6,7,8,9-hexahydro-2H-5,9-epiminocycloocta[c]pyrazol-10-yl)methanone] returned an IC50 of 0.0051 µM.

Molecule `COc1ccc(C(=O)N2CCc3c(nn(C)c3-c3cc(C(F)(F)F)nn3C)[C@@H]2C)c(Cl)c1` [Example 42, (S)-(2-Chloro-4-methoxyphenyl)(2,7-dimethyl-3-(1-methyl-3-(trifluoromethyl)-1H-pyrazol-5-yl)-2,4,5,7-tetrahydro-6H-pyrazolo[3,4-c]pyridin-6-yl)methanone] returned an IC50 of 0.1 µM.

Consider `COc1ccc(C(=O)N2CCc3c(nn(C)c3-c3cc(C(F)(F)F)nn3C)[C@@H]2C)c(C)c1` [Example 40, (S)-(2,7-Dimethyl-3-(1-methyl-3-(trifluoromethyl)-1H-pyrazol-5-yl)-2,4,5,7-tetrahydro-6H-pyrazolo[3,4-c]pyridin-6-yl)(4-methoxy-2-methylphenyl)methanone], for which the IC50 turned out to be 0.23 µM.

`C[C@H]1c2nn(C)c(-c3cc(C(F)(F)F)nn3C)c2CCN1C(=O)c1cccc2c1OCCC2` [Example 54, (S)-Chroman-8-yl(2,7-dimethyl-3-(1-methyl-3-(trifluoromethyl)-1H-pyrazol-5-yl)-2,4,5,7-tetrahydro-6H-pyrazolo[3,4-c]pyridin-6-yl)methanone] had a half-inhibitory concentration (IC50) of 0.016 µM. Against the preceding molecule, the IC50 is about 14-fold lower.

Consider `Cc1cc(C)c2cc(C(=O)N3CCc4c(nn(C)c4-c4cc(C(F)(F)F)nn4C)[C@@H]3C)ccc2n1` [Example 94, (S)-(2,7-Dimethyl-3-(1-methyl-3-(trifluoromethyl)-1H-pyrazol-5-yl)-2,4,5,7-tetrahydro-6H-pyrazolo[3,4-c]pyridin-6-yl)(2,4-dimethylquinolin-6-yl)methanone], for which inhibition was half-maximal at 0.039 µM (IC50).

In turn, `Cc1cc(C(=O)N2CCc3c(nn(C)c3-c3cc(C(F)(F)F)nn3C)[C@@H]2C)c2cnn(C)c2n1` [Example 15, (S)-(1,6-Dimethyl-1H-pyrazolo[3,4-b]pyridin-4-yl)(2,7-dimethyl-3-(1-methyl-3-(trifluoromethyl)-1H-pyrazol-5-yl)-2,4,5,7-tetrahydro-6H-pyrazolo[3,4-c]pyridin-6-yl)methanone] yielded an IC50 of 0.056 µM.

Take `COc1ccc(C(=O)N2CCc3c(nn(C)c3-c3cc(C(F)(F)F)nn3C)[C@@H]2C)c2cccnc12` [Example 14, (S)-(2,7-Dimethyl-3-(1-methyl-3-(trifluoromethyl)-1H-pyrazol-5-yl)-2,4,5,7-tetrahydro-6H-pyrazolo[3,4-c]pyridin-6-yl)(8-methoxyquinolin-5-yl)methanone]: half-maximal inhibition (IC50) was put at 0.015 µM. Against the preceding molecule, the IC50 is about 3.7-fold lower.

Take `COc1cccc(C(=O)N2CCc3c(nn(C)c3-c3c(C)cnn3C)[C@@H]2C)c1C` [Example 2, (S)-(3-(1,4-Dimethyl-1H-pyrazol-5-yl)-2,7-dimethyl-2,4,5,7-tetrahydro-6H-pyrazolo[3,4-c]pyridin-6-yl)(3-methoxy-2-methylphenyl)methanone]: 10 µM corresponded to half-maximal inhibition (IC50). Compared with the last molecule, the IC50 is about 670-fold higher.

Regarding `Cc1cc(C(=O)N2CCc3c(nn(C)c3-c3cnn(C)c3C(F)(F)F)[C@@H]2C)cc(-n2nccn2)c1` [Example 53, (S)-(2,7-Dimethyl-3-(1-methyl-5-(trifluoromethyl)-1H-pyrazol-4-yl)-2,4,5,7-tetrahydro-6H-pyrazolo[3,4-c]pyridin-6-yl)(3-methyl-5-(2H-1,2,3-triazol-2-yl)phenyl)methanone], the IC50 amounted to 0.81 µM.

Regarding `Cn1nc(C(F)(F)F)cc1-c1c2c(nn1C)[C@@H]1CCC[C@H](C2)N1C(=O)c1nn(C)c2ccc(F)cc12` [Example 86, (5-Fluoro-1-methyl-1H-indazol-3-yl)((5R,9S)-2-methyl-3-(1-methyl-3-(trifluoromethyl)-1H-pyrazol-5-yl)-4,5,6,7,8,9-hexahydro-2H-5,9-epiminocycloocta[c]pyrazol-10-yl)methanone], half-maximal inhibition (IC50) was put at 0.018 µM.

On to `Cc1ccc2c(C)c(C(=O)N3CCc4c(nn(C)c4-c4cc(C(F)(F)F)nn4C)[C@@H]3C)ccc2n1` [Example 92, (S)-(2,7-Dimethyl-3-(1-methyl-3-(trifluoromethyl)-1H-pyrazol-5-yl)-2,4,5,7-tetrahydro-6H-pyrazolo[3,4-c]pyridin-6-yl)(2,5-dimethylquinolin-6-yl)methanone], for which it took 0.38 µM to reach half-maximal inhibition (IC50).
